PMC9652956, “The ovipositor cue indole inhibits animal host attraction in Aedes aegypti (Diptera: Culicidae) mosquitoes” (Parasites & Vectors, 2022)

Tests used:
[1] = target: T1, AaegOR8 (Aedes aegypti (R)-1-octen-3-ol receptor OR8) (Aedes aegypti, UniProt Q16MN0); test: two-electrode voltage clamp, Xenopus oocytes; baseline current shift under […] perfusion versus water-injected oocytes; assay type: cell-based
T1 construct: gene GPRor8; with AaegOrco
T1 sequence (Q16MN0 1-422): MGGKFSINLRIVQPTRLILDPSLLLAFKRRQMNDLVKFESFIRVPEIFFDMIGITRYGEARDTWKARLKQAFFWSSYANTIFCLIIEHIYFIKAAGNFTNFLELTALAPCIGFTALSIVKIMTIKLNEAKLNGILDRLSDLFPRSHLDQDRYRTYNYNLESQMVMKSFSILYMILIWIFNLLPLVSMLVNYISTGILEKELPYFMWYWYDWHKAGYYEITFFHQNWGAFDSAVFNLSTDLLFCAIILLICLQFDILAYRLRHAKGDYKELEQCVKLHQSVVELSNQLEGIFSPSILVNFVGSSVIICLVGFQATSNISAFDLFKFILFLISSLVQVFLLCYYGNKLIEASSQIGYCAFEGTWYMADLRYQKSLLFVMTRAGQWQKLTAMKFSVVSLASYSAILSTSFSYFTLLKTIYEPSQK
T1 sequence (Q178U6 1-478 partner): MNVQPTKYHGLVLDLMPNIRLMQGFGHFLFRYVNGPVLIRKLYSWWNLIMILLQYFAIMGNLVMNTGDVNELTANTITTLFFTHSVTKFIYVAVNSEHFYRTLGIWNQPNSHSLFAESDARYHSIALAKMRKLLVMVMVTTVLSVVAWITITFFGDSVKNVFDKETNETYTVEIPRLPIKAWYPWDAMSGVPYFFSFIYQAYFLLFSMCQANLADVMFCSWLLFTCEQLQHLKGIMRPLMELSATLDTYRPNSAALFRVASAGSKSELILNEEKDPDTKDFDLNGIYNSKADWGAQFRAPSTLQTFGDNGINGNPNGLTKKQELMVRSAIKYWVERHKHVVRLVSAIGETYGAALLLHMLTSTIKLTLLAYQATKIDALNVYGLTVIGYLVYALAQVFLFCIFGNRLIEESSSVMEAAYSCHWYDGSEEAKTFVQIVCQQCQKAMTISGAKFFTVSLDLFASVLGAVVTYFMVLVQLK

[2] = target: T1, AaegOR8 (Aedes aegypti (R)-1-octen-3-ol receptor OR8); test: two-electrode voltage clamp, Xenopus oocytes expressing AaegOR8-Orco; about […] inhibition at […]; not active on Orco alone; assay type: cell-based; details: read-out: % reduction at 10^-3 M

| Compound | two-electrode voltage clamp, Xenopus oocytes; baseline current shift under 0.01 [1] | inhibition at 1000 µM [2] |
| --- | --- | --- |
| CCN(CC)C(=O)c1cccc(C)c1 [DEET] | Indole and insect repellents (DEET, IR3535) increased the baseline current state of AaegOR8-Orco-injected oocytes |  |
| CCCCN(CCC(=O)OCC)C(C)=O [IR3535] | Indole and insect repellents (DEET, IR3535) increased the baseline current state of AaegOR8-Orco-injected oocytes |  |
| c1ccc2[nH]ccc2c1 [indole] |  | ~30% |
